Tested on: CHIP
Experiment: NanoBiT live cell PPI assay (CHIP-tau split luciferase)
Format: cell-based
Details: Fig 1B, normalized to FL tau with vehicle, 30nM OA
Method: Fig. 1 Phosphorylation of tauC3 inhibits interaction with CHIP. A Cartoon schematic of the live-cell NanoBiT assay for measuring CHIP-tau PPIs (NanoBiT PDB = 7SNX; CHIP PDB = 2C2L). B Results of NanoBiT assays for CHIP interactions with tau proteoforms following treatment with okadaic acid (30 nM, 18 h) or DMSO control. Luminescence normalized to CHIP binding to FL 0N4R tau treated with vehicle (dashed line). Error bars represent standard deviation (SD). Statistical significance was determined by two-way ANOVA with Bonferroni’s post hoc analysis (n = 3 biological replicates). CTRL = mock transfected control. C Tau proteoforms binding to immobilized CHIP measured by ELISA. Assay was performed in technical triplicate and normalized to maximum absorbance at 450 nm. D Dissociation constants derived from (C). Error bars represent SD. E In vitro ubiquitination of tau proteoforms by CHIP. Samples were collected at the denoted timepoints, quenched in SDS-PAGE loading buffer, and analyzed by western blot. Assay was performed once.
Fig. 2 Phosphorylation of tauC3 Ser416 is sufficient to inhibit interaction with CHIP. A Cartoon depicting constructs used for mapping of inhibitory phosphorylation sites by NanoBiT live cell assays. B NanoBiT live cell assay for CHIP interactions with truncated tau constructs following treatment with okadaic acid (30 nM, 18 h) or DMSO control. Data are shown as the difference between okadaic acid treated samples and vehicle control. Error bars represent SD. Statistical significance was determined by two-sided, one-way ANOVA with Tukey’s post hoc analysis (n = 3 biological replicates). C Apparent change in melting temperatures (Tmapp) for CHIP incubated with DMSO control or Hsp70 C-terminal peptides, as determined by DSF. Error bars represent SD. (n = 4 technical replicates). D DSF experiments performed and analyzed as in the previous panel, but with tauC3-derived peptides. (n = 4 technical replicates). E Competition FP experiment showing displacement of fluorescent tracer from the CHIP TPR domain by various 10-mer Hsp70 or tauC3-derived peptides. Experiments were performed in technical quadruplicate. F Inhibition constants derived from (E). Error bars represent SD. G Tau proteoforms binding to immobilized CHIP, as measured by ELISA. Assay was performed in technical triplicate and normalized to maximum absorbance at 450 nm. H Dissociation constants derived from (G). Error bars represent SD.
CHIP-substrate NanoBiT PPI assay was performed as previously described. Briefly, HEK293T cells were seeded in poly-D-lysine coated 96-well plates (Corning, flat bottom, white opaque) in Opti-MEM. Cells were transfected with 50 ng each SmBiT/LgBiT DNA using Lipofectamine 3000 (Thermo Fisher) in Opti-MEM according to the manufacturer’s instructions. Transfections were performed for 24 h, after which the media was replaced with fresh Opti-MEM containing DMSO or 30 nM okadaic acid. Cells were incubated for an additional […] at 37 °C/5% CO2 in a humidified incubator. Following this incubation, 12.5 uL 1X Nano-Glo live cell luciferase reagent (Promega) diluted in LCS buffer (Promega) was added to each well, and samples were incubated for 10 min at room temperature in the dark to allow luminescence levels to stabilize. […] Un-transfected cells were used to obtain background measurements which were subtracted from observed luminescence values.

tau: full length (FL) 0N4R splice isoform of tau, unmodified; recombinant or expressed in cells
fold change of luminescence (replicate 1): 1.804
fold change of luminescence (replicate 2): 1.978
fold change of luminescence (replicate 3): 1.758
